Like-named read-outs stand apart in the source and are kept apart here. Bridges are numbered along the chain shown (N, C = ends). Where no end group is shown, it is not given here.
What was measured:
[1] = 37° C., cited from earlier work
[2] = target: guanylate cyclase C (GC-C) receptor (UniProt P25092 24-1073, limits assumed); assay: cell-based or functional assay
Sequence of guanylate cyclase C (GC-C) receptor (P25092 24-1073 limits assumed): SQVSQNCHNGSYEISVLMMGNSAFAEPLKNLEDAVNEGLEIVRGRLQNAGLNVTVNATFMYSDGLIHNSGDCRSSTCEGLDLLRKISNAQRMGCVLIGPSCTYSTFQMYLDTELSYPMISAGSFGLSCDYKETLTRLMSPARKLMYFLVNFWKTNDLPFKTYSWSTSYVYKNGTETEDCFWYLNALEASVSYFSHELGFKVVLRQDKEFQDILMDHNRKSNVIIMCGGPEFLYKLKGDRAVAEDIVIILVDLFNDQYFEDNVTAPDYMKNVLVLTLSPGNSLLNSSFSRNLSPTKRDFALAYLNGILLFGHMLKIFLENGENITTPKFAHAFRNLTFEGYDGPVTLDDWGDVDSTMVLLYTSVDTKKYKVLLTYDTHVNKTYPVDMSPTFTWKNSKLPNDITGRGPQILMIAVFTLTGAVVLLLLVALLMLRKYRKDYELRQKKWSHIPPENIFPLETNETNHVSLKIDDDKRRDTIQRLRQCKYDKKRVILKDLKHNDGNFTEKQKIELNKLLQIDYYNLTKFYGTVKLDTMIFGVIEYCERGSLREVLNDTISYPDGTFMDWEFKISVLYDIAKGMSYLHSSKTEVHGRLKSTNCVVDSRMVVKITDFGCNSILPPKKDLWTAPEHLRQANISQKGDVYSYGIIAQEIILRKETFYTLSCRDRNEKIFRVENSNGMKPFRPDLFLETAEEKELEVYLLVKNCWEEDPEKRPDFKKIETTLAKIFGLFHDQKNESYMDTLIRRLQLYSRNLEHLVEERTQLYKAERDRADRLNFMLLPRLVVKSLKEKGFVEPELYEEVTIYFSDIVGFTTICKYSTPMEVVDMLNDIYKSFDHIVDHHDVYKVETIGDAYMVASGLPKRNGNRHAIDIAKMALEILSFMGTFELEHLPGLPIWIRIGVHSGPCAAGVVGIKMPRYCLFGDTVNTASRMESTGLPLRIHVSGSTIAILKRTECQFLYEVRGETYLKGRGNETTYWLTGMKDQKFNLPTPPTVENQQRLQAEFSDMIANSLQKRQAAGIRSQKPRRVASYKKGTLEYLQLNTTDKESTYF

| Molecule | half life of each stereoisomer (A/B interconversion) [1] | half life of each stereoisomer (A/B interconversion) ([1]; listed as human Ugn) | cyclic GMP synthesis in T84 cells, potency against huUgnA [2] |
| --- | --- | --- | --- |
| CC(C)C[C@H](NC(=O)[C@@H]1CSSC[C@@H]2NC(=O)[C@H](CC(C)C)NC(=O)[C@H](CCC(=O)O)NC(=O)[C@@H](NC(=O)[C@H](CC(=O)O)NC(=O)[C@H](CC(=O)O)NC(=O)[C@@H](N)CC(N)=O)CSSC[C@H](NC(=O)[C@H](C)NC(=O)[C@H](C(C)C)NC(=O)[C@H](CC(N)=O)NC(=O)[C@H](C(C)C)NC2=O)C(=O)N[C@@H]([C@@H](C)O)C(=O)NCC(=O)N1)C(=O)O [huUgn, Asn Asp Asp Cys Glu Leu Cys Val Asn Val Ala Cys Thr Gly Cys Leu] | approximately 2 days | about 2 days | – |
| NDDCELCVNVACTGCL (disulfide 4-12, 7-15) [Human UgnB (B isoform of human uroguanylin)] | – | – | > 100 fold less potent than huUgnA |
